These results are taken from article PMC9667546, “Selective Inhibition of Bruton’s Tyrosine Kinase by a Designed Covalent Ligand Leads to Potent Therapeutic Efficacy in Blood Cancers Relative to Clinically Used Inhibitors” (ACS Pharmacology & Translational Science, 2022).

Assay [1] has as its target T1, BTK (Homo sapiens, UniProt Q06187). The assay is described as follows: BTK inhibition kinetics (ADP-Glo kinase assay). The class given is biochemical. Also on record: purchased Promega Corporation V2941. Background: ADP-Glo first removes unused ATP, then detects ADP through luciferase.
A further assay deals with HL-60 cells (APML). Description: Cell viability assay (CellTiter-Glo), HL-60. To be noted: Homo sapiens, 72 h, n = 3. The class given is cell-based. On the procedure: (§1) All cell lines were purchased from ATCC, except for DoHH-2 cells that were obtained from DSMZ. Cells were cultivated in complete DMEM supplemented with 10% (vol/vol) FBS (Gibco) and 1% of penicillin/streptomycin (Gibco). The cells were grown in a humidified atmosphere of 5% CO2 at 37°C, with the medium changed every other day.
(§2) Cells were inoculated at a density of 5000 cells/well. Serially diluted compounds (starting at 50 μM) were added 24 h later. The assay was performed in triplicates. After 72 h of incubation, cellular viability was assessed by CellTiter-Glo (Promega) according to the manufacturer’s instructions. The values were normalized with the vehicle (DMSO), and the IC50 was calculated using GraphPad Prism 8.
In general terms: Cellular ATP, detected with luciferase, serves as a proxy for viable cell number.

The next assay addresses T2, BMX (Homo sapiens, UniProt P51813).
T2 construct: host or cells: HEK296T (so in the source)
T2 sequence (P51813 1-675): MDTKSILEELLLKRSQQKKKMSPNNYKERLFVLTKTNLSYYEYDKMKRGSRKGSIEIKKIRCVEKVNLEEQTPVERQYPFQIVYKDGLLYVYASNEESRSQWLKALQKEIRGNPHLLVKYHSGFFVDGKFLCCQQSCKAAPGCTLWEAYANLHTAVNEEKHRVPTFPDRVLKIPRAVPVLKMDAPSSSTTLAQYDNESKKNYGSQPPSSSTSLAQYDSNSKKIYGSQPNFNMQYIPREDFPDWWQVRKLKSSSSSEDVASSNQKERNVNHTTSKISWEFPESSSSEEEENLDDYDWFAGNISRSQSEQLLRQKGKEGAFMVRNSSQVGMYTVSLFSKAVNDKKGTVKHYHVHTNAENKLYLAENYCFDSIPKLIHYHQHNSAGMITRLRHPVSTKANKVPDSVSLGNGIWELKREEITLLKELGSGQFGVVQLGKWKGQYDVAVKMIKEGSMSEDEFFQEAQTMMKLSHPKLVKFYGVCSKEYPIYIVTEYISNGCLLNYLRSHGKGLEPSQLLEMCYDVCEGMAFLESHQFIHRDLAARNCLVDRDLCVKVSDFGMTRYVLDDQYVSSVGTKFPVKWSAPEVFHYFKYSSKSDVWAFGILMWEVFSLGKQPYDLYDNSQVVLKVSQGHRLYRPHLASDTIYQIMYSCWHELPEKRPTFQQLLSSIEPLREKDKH
To be noted: first value of 3.5/49 in Table S3; ref SI 20; read-out: IC50, BMX, earlier value of JS25; cited from earlier work.

The next assay deals with WA-C3CD5+ cells (CLL). The assay is described as follows: Cell viability assay (CellTiter-Glo), WA-C3CD5+. To be noted: 72 h, n = 3. It is filed as cell-based.
For another assay, the system named is primary DLBCL samples. Description: Ex vivo model of diffuse large B-cell lymphoma (Pharmacoscopy, drug response score). It is filed as cell-based, human. To be noted: 72 h, 4-point dose–response from 10 μM.
The target in another assay is T3, ERBB2 (Homo sapiens, UniProt P04626).
T3 construct: host or cells: HEK296T (so in the source)
Description: NanoBRET in-cell target engagement, ERBB2. It is filed as binding. To be noted: HEK296T cells, 1 h incubation, average of duplicates. On the procedure:
(§3) In-cell target engagement was performed at Reaction Biology Corporation, using NanoBRET technology. Very briefly, HEK296T cells were transfected and treated in duplicate with JS25 for 1 h of incubation. The compound was diluted 10 times with 3-fold dilution, starting at 1 μM. Curve fits were performed only when the % NanoBret signal at the highest concentration of compounds was less than 55%. The IC50 values were determined using GraphPad Prism 8 ([…]).

A further assay relates to JURKAT cells. The assay is described as follows: Cell viability assay (CellTiter-Glo), JURKAT. It is filed as cell-based. To be noted: Homo sapiens, 72 h, n = 3. Here is the method:
as §1, §2

In another assay the target is T4, JAK3 (Homo sapiens, UniProt P52333).
T4 construct: host or cells: HEK296T (so in the source)
The assay is described as follows: NanoBRET in-cell target engagement, JAK3. The class given is binding. To be noted: HEK296T cells, 1 h incubation, average of duplicates. Here is the method: as §3

Another assay deals with T5, TXK (Homo sapiens, UniProt P42681).
T5 construct: host or cells: HEK296T (so in the source)
T5 sequence (P42681 1-527): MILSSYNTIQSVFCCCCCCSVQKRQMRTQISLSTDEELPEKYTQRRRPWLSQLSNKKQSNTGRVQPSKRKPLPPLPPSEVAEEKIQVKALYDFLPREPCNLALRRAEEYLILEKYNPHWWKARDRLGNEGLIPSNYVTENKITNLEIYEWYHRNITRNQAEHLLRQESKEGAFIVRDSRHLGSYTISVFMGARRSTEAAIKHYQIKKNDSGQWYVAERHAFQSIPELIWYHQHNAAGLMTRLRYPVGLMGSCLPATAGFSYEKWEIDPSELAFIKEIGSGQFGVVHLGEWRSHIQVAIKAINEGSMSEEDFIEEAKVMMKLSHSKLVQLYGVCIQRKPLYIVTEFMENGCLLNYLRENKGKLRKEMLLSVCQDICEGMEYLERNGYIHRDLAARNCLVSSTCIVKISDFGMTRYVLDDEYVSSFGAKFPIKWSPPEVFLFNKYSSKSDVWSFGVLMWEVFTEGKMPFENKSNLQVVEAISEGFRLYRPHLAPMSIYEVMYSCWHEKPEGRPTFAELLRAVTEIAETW
Description: NanoBRET in-cell target engagement, TXK. It is filed as binding. Here is the method:
as §3
Background: BRET reads energy transfer from a luciferase to a nearby fluorophore.

In assay [2] the target is T1, BTK. The assay is described as follows: BTK degradation in Raji cells (Western blot). It is filed as cell-based. Details: endogenous in cells; host or cells: Raji cells (Burkitt's lymphoma). To be noted: 10 μM. On the procedure:
Raji cells were inoculated at 0.5 × 10^6 cells/mL, and JS25 was added at a final concentration of 10 μM. At 0, 4, and 15 h of incubation, the cells were harvested, and the pellets were resuspended in lysis buffer (20 mM Tris–HCl, 150 mM NaCl, pH 8.0, 0.1% Triton X-100), supplemented with EDTA-free Protease Inhibitor Cocktail (Merck) and DNase I (Merck). The protein concentration was determined using the Pierce BCA Protein Assay Kit (Thermo Scientific). Western blot was performed with rabbit BTK antibody (1:1000; 3533, Cell Signaling Technology), mouse α-Tubulin antibody (1:5000; 5168, Merck), goat anti-rabbit IgG (H + L) secondary antibody HRP (1:7000; 65-6120, Invitrogen), and goat anti-mouse IgG (H + L) secondary antibody HRP (1:5000; 2-6520, Invitrogen).

For the next assay, the system named is MOLM-13 cells (AML). Description: Cell viability assay (CellTiter-Glo), MOLM-13. The class given is cell-based. To be noted: Homo sapiens, 72 h, n = 3. Here is the method:
as §1, §2

Another assay relates to Mo1043 cells (CLL). Description: Cell viability assay (CellTiter-Glo), Mo1043. It is filed as cell-based. To be noted: 72 h, n = 3.
[3] abbreviates: BTK preincubated with inhibitor 2–60 min, ATP 50 μM.

T1 sequence (Q06187 whole entry): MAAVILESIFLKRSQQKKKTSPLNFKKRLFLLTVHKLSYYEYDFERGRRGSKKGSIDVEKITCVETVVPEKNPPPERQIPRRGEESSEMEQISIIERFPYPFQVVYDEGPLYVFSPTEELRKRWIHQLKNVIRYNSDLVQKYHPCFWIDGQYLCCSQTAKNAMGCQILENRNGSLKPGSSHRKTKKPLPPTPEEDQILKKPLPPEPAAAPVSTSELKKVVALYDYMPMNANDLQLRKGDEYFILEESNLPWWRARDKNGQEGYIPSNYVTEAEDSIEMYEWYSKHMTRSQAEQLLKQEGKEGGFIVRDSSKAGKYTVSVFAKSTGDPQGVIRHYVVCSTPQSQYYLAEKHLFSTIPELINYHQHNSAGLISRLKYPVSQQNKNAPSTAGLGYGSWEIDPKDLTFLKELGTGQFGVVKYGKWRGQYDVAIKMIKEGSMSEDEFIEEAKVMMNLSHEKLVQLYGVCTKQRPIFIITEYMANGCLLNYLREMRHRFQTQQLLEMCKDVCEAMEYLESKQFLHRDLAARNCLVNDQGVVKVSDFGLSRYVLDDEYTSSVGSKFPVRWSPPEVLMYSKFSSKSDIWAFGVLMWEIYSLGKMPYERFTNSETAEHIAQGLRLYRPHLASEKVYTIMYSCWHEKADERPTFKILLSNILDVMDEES
T4 sequence (P52333 whole entry): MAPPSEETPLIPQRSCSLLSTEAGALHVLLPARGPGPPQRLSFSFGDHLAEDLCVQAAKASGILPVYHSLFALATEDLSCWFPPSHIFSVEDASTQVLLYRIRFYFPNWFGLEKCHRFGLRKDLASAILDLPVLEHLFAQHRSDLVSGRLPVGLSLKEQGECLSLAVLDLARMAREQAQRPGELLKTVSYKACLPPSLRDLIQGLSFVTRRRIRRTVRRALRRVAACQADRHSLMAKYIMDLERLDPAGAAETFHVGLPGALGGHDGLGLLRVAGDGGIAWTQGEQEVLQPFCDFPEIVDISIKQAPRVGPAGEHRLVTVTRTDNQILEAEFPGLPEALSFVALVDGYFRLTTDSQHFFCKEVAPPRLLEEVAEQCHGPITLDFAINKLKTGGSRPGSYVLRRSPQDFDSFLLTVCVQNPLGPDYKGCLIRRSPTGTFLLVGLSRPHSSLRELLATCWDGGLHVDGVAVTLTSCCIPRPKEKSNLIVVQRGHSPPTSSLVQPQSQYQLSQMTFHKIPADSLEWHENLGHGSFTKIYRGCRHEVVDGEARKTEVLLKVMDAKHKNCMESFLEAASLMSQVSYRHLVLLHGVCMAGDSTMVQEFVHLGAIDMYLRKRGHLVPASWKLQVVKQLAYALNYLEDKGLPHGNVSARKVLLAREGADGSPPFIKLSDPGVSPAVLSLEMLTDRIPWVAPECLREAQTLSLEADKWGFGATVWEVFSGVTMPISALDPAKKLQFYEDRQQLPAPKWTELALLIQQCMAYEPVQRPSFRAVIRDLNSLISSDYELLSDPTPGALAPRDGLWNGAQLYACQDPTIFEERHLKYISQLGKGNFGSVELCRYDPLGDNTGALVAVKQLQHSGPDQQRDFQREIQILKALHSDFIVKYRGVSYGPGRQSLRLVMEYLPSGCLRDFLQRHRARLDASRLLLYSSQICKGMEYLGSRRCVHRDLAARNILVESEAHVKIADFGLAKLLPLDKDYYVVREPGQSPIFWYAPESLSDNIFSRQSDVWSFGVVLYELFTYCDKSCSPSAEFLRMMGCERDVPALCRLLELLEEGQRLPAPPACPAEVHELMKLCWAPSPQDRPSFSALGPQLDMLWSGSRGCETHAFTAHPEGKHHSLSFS
T3 sequence (P04626 23-1255): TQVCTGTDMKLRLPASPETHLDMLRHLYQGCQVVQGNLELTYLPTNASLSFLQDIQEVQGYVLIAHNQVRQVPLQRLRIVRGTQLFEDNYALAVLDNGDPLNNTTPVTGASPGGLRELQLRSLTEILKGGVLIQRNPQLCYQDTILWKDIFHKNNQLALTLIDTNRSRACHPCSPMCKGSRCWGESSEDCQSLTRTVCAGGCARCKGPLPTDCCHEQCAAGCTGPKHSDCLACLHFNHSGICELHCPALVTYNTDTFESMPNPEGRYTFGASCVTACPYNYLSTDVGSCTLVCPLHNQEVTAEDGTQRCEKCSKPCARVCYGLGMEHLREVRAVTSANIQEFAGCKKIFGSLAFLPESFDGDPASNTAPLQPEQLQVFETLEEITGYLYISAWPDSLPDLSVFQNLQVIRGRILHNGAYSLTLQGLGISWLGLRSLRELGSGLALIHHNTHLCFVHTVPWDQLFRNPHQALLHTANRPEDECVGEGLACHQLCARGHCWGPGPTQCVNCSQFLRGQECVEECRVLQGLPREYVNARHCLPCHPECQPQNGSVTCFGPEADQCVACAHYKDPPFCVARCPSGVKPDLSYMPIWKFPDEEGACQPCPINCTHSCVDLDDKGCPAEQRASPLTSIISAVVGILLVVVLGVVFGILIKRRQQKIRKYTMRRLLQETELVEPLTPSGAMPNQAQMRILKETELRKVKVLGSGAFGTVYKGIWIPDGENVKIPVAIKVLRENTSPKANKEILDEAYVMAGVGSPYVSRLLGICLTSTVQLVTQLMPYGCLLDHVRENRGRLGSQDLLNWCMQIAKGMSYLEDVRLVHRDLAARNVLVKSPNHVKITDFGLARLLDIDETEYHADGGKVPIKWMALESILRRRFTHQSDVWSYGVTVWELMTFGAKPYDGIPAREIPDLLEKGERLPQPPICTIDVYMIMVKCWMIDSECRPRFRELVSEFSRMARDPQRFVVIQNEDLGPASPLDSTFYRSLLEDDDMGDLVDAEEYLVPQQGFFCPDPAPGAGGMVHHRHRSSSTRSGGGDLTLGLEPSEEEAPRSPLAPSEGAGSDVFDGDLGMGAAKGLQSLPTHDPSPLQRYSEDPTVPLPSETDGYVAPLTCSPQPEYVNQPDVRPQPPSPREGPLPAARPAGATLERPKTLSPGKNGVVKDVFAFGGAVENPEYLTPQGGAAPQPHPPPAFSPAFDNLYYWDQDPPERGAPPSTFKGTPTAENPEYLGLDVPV

The term Ki denotes the equilibrium dissociation constant of an inhibitor or competing ligand from its target. Low values mean higher affinity, high ones lower affinity. What is called kinact is the rate constant of inactivation at saturating inhibitor. In general, kinact/KI refers to the second-order rate constant of inactivation. By IC50 is commonly meant the concentration needed to halve the response being measured. As for `C=CC(=O)Nc1cc(C)cc(-n2c(=O)ccc3cnc4ccc(-c5ccc(NS(C)(=O)=O)cc5)cc4c32)c1` [JS25], the “increase in the rate of protein inactivation compared to ibrutinib, acalabrutinib and BMX-IN-1” value on BTK [1] is 8–200 fold. Besides, the “increased rate of inactivation (kinact/KI) relative to BMX-IN-1” value on BTK [1] is on record as approximately 18 fold. In addition, the “increased rate of inactivation (kinact/KI) relative to acalabrutinib” value at BTK [1] is listed as approximately 200 fold. Further, the “increased rate of inactivation (kinact/KI) relative to ibrutinib” value at BTK [1] was “approximately 8 fold”. For the same compound, the “kinact of JS25, fold faster compared with ibrutinib, acalabrutinib and BMX-IN-1” value at BTK [1] came to 10 fold. This compound returned a Ki on BTK [1] (setting [3]) of 0.77 ± 0.06 nM. In addition, on BTK [1] (setting [3]), the kinact is 0.00668 s⁻¹. Further, the kinact/KI at BTK [1] (setting [3]) came out at 8.72e+06 ± 1.02e+06 M⁻¹ s⁻¹. The half-inhibitory concentration (IC50) is 1950 nM in the assay with HL-60 cells (APML); 3.5 nM at BMX; 3500 nM in the assay with WA-C3CD5+ cells (CLL); more than 3000 nM at ERBB2; 38400 ± 70 nM with JURKAT cells; more than 3000 nM against JAK3. The IC50 is 190 nM against TXK (HEK296T cells, 1 h incubation, average of duplicates); approximately 510 nM with MOLM-13 cells (AML); 3400 ± 10 nM with Mo1043 cells (CLL). The “patients with off-target or nonspecific killing (DRS < 0)” value with primary DLBCL samples (11 patients) was approximately 36%. Further, the “patients with “on-target” effect (DRS > 0)” value in the assay with primary DLBCL samples (JS25 11 patients, ibrutinib 10 patients) stood at 64%. The “selectivity for BTK relative to TXK” value on TXK is approximately 7 fold. The “selectivity (kinase/BTK), TXK” value on TXK (IC50 kinase/IC50 BTK) came out at 6.7. Besides, the BTK degradation entry at BTK [2] (4 h) is reported as “evident”; on BTK [2] (15 h), “almost completed”.
